Reference: patent publication US20130266636A1, “METHODS FOR BLOCKING CELL PROLIFERATION AND TREATING DISEASES AND CONDITIONS RESPONSIVE TO CELL GROWTH INHIBITION” (THE REGENTS OF THE UNIVERSITY OF CALIFORNIA, priority 2010, published 2013)
“Also recorded” adds a separate entry of the source.

Legend:
HCT-116 cells = experiment: G2/M arrest in HCT-116 cells expressing WT or S338D CRAF; type: cell-based, human; details: 1 μM KG5, 18 hours
CAKI-1 = experiment: NCI-60 panel growth inhibition; type: cell-based; details: Homo sapiens, Renal Cancer, mutated RAS No, mutated BRAF No
Excerpt: (§1) Table 1 summarizes KG5's effect in 60 NCI cancer cell lines: the NCI-60 panel showing the half maximal growth inhibitory concentration of KG5 and the RAS and BRAF status in 60 human cancer cell lines.

HCT-116 = experiment: NCI-60 panel growth inhibition; type: cell-based; details: Homo sapiens, Colon Cancer, mutated RAS Yes
Excerpt: as §1

LOX IMVI = experiment: NCI-60 panel growth inhibition; type: cell-based; details: Homo sapiens, Melanoma, mutated RAS No, mutated BRAF Yes
Excerpt: as §1

ACHN = experiment: NCI-60 panel growth inhibition; type: cell-based; details: Homo sapiens, Renal Cancer, mutated RAS No, mutated BRAF No
Excerpt: as §1

UACC-257 = experiment: NCI-60 panel growth inhibition; type: cell-based; details: Homo sapiens, Melanoma, mutated RAS No, mutated BRAF Yes
Excerpt: as §1

BT-549 = experiment: NCI-60 panel growth inhibition; type: cell-based; details: Homo sapiens, Breast Cancer, mutated RAS No, mutated BRAF No
Excerpt: as §1

SN12C = experiment: NCI-60 panel growth inhibition; type: cell-based; details: Homo sapiens, Renal Cancer, mutated RAS No, mutated BRAF No
Excerpt: as §1

SF-268 = experiment: NCI-60 panel growth inhibition; type: cell-based; details: Homo sapiens, CNS Cancer, mutated RAS No, mutated BRAF No
Excerpt: as §1

NCI-H23 = experiment: NCI-60 panel growth inhibition; type: cell-based; details: Homo sapiens, NSC Lung Cancer, mutated RAS Yes, mutated BRAF No
Excerpt: as §1

MDA-MB-435 = experiment: NCI-60 panel growth inhibition; type: cell-based; details: Homo sapiens, Melanoma, mutated RAS No, mutated BRAF Yes
Excerpt: as §1

K-562 = experiment: NCI-60 panel growth inhibition; type: cell-based; details: Homo sapiens, K562; Leukemia; mutated RAS No; mutated BRAF No
Excerpt: as §1

T-47D = experiment: NCI-60 panel growth inhibition; type: cell-based; details: Homo sapiens, T47D; Breast Cancer; mutated RAS Yes; mutated BRAF No
Excerpt: as §1

MDA-MB-468 = experiment: NCI-60 panel growth inhibition; type: cell-based; details: Homo sapiens, Breast Cancer, mutated RAS No, mutated BRAF No
Excerpt: as §1

NCI/ADR-RES = experiment: NCI-60 panel growth inhibition; type: cell-based; details: Homo sapiens, Ovarian Cancer, mutated RAS No, mutated BRAF No
Excerpt: as §1

NCI-H322M = experiment: NCI-60 panel growth inhibition; type: cell-based; details: Homo sapiens, NSC Lung Cancer, mutated RAS No, mutated BRAF No
Excerpt: as §1

M14 = experiment: NCI-60 panel growth inhibition; type: cell-based; details: Homo sapiens, Melanoma, mutated RAS No, mutated BRAF Yes
Excerpt: as §1

HCC-2998 = experiment: NCI-60 panel growth inhibition; type: cell-based; details: Homo sapiens, Colon Cancer, mutated RAS No, mutated BRAF No
Excerpt: as §1

SF-295 = experiment: NCI-60 panel growth inhibition; type: cell-based; details: Homo sapiens, CNS Cancer, mutated RAS No, mutated BRAF No
Excerpt: as §1

UACC-62 = experiment: NCI-60 panel growth inhibition; type: cell-based; details: Homo sapiens, Melanoma, mutated RAS No, mutated BRAF Yes
Excerpt: as §1

EKVX = experiment: NCI-60 panel growth inhibition; type: cell-based; details: Homo sapiens, NSC Lung Cancer, mutated RAS No, mutated BRAF No
Excerpt: as §1

RXF 393 = experiment: NCI-60 panel growth inhibition; type: cell-based; details: Homo sapiens, Renal Cancer, mutated RAS No, mutated BRAF No
Excerpt: as §1

U251 = experiment: NCI-60 panel growth inhibition; type: cell-based; details: Homo sapiens, U-251; CNS Cancer; mutated RAS No; mutated BRAF No
Excerpt: as §1

MCF7 = experiment: NCI-60 panel growth inhibition; type: cell-based; details: Homo sapiens, Breast Cancer, mutated RAS No, mutated BRAF No
Excerpt: as §1

SF-539 = experiment: NCI-60 panel growth inhibition; type: cell-based; details: Homo sapiens, CNS Cancer, mutated RAS No, mutated BRAF No
Excerpt: as §1

UO-31 = experiment: NCI-60 panel growth inhibition; type: cell-based; details: Homo sapiens, Renal Cancer, mutated RAS No, mutated BRAF No
Excerpt: as §1

OVCAR-8 = experiment: NCI-60 panel growth inhibition; type: cell-based; details: Homo sapiens, Ovarian Cancer, mutated RAS No, mutated BRAF No
Excerpt: as §1

HT29 = experiment: NCI-60 panel growth inhibition; type: cell-based; details: Homo sapiens, HT-29; Colon Cancer; mutated RAS No; mutated BRAF Yes
Excerpt: as §1

CCRF-CEM = experiment: NCI-60 panel growth inhibition; type: cell-based; details: Homo sapiens, Leukemia, mutated RAS Yes, mutated BRAF No
Excerpt: as §1

SK-OV-3 = experiment: NCI-60 panel growth inhibition; type: cell-based; details: Homo sapiens, Ovarian Cancer, mutated RAS No, mutated BRAF No
Excerpt: as §1

786-0 = experiment: NCI-60 panel growth inhibition; type: cell-based; details: Homo sapiens, Renal Cancer, mutated RAS No, mutated BRAF No
Excerpt: as §1

PC-3 = experiment: NCI-60 panel growth inhibition; type: cell-based; details: Homo sapiens, Prostate Cancer, mutated RAS No, mutated BRAF No
Excerpt: as §1

MALME-3M = experiment: NCI-60 panel growth inhibition; type: cell-based; details: Homo sapiens, Melanoma, mutated RAS No, mutated BRAF Yes
Excerpt: as §1

HL-60(TB) = experiment: NCI-60 panel growth inhibition; type: cell-based; details: Homo sapiens, Leukemia, mutated RAS Yes, mutated BRAF No
Excerpt: as §1

DU-145 = experiment: NCI-60 panel growth inhibition; type: cell-based; details: Homo sapiens, Prostate Cancer, mutated RAS No, mutated BRAF No
Excerpt: as §1

HS 578T = experiment: NCI-60 panel growth inhibition; type: cell-based; details: Homo sapiens, Breast Cancer, mutated RAS Yes, mutated BRAF No
Excerpt: as §1

SNB-75 = experiment: NCI-60 panel growth inhibition; type: cell-based; details: Homo sapiens, CNS Cancer, mutated RAS No, mutated BRAF No
Excerpt: as §1

SK-MEL-2 = experiment: NCI-60 panel growth inhibition; type: cell-based; details: Homo sapiens, Melanoma, mutated RAS Yes, mutated BRAF No
Excerpt: as §1

[1] = tested on: p21-activated kinase (PAK); details: inferred from MEK S298; cited from earlier work
NCI-60 panel = NCI-60 panel growth inhibition, overall; type: cell-based, human
Excerpt: FIG. 8 illustrates […] panel showing the half maximal growth inhibitory concentration of KG5 in […] human cancer cell lines.
as §1

PDGFRβ = PDGFRβ (Homo sapiens, UniProt P09619); details: in response to PDGF-BB; cited from earlier work
[2] = tested on: human lung (A549) carcinoma cell line; experiment: Cell viability assay in A549 cells; type: cell-based

PDGFRβ, sequence (P09619 33-1106, species assumed): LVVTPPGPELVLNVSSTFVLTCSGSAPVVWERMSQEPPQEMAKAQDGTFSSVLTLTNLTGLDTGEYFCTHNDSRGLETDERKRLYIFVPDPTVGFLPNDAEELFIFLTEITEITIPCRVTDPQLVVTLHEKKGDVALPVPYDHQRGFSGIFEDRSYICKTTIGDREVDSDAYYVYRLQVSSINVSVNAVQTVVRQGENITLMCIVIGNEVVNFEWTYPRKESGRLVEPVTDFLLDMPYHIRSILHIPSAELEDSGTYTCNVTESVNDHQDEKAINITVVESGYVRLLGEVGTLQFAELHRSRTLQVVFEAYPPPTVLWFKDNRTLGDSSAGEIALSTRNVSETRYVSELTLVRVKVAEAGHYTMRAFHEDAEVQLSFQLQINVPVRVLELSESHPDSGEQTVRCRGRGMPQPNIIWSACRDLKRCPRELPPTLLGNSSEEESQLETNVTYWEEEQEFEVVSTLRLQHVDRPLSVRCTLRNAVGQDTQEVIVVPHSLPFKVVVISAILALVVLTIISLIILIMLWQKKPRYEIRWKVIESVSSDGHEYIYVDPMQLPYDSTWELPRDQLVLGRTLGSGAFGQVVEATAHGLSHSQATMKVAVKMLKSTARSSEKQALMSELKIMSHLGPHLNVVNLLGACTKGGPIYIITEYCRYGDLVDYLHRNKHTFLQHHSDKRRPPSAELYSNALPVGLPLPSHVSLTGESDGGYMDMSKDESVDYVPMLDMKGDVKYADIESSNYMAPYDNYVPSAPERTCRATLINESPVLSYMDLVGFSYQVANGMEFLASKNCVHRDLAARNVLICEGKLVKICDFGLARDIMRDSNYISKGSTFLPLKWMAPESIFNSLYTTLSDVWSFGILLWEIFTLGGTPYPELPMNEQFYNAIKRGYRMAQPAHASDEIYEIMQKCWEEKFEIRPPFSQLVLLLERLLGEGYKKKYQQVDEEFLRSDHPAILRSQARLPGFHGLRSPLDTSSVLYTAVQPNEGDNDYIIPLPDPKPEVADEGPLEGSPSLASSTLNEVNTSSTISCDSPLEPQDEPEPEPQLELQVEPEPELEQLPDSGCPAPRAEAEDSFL

With `CSc1nc(N)cc(Oc2ccc(-c3nnc(Nc4cccc(C(F)(F)F)c4)[nH]3)cc2)n1` [KG5] as the compound, how does the “G2/M arrest in cells expressing phospho-mimetic S338D CRAF” value (HCT-116 cells) read?
The value was “showed resistance to KG5”.

What about the GI50 (CAKI-1) of the same compound?
The GI50 was 417 nM.

And the GI50 (HCT-116)?
Its GI50 is 457 nM.

What about the GI50 (LOX IMVI) of the same compound?
Its GI50 is 851 nM.

What about the GI50 (ACHN) of the same compound?
Its GI50 is 851 nM.

What about the GI50 (UACC-257) of the same compound?
The GI50 was 407 nM.

And the GI50 (BT-549)?
The GI50 was 708 nM.

What about the GI50 (SN12C) of the same compound?
Its GI50 is 912 nM.

And the GI50 (SF-268)?
The GI50 was 912 nM.

And the GI50 (NCI-H23)?
Its GI50 is 525 nM.

What about the GI50 (MDA-MB-435) of the same compound?
The GI50 was 195 nM.

What about the GI50 (K-562) of the same compound?
The GI50 was 513 nM.

And the GI50 (T-47D)?
Its GI50 is 347 nM.

And the GI50 (MDA-MB-468)?
Its GI50 is 191 nM.

And the GI50 (NCI/ADR-RES)?
Its GI50 is 437 nM.

What about the GI50 (NCI-H322M) of the same compound?
Its GI50 is 525 nM.

And the GI50 (M14)?
The GI50 was 347 nM.

And the GI50 (HCC-2998)?
The GI50 was 1410 nM.

What about the GI50 (SF-295) of the same compound?
The GI50 was 427 nM.

And the GI50 (UACC-62)?
The GI50 was 501 nM.

What about the GI50 (EKVX) of the same compound?
Its GI50 is 501 nM.

What about the GI50 (RXF 393) of the same compound?
Its GI50 is 166 nM.

What about the GI50 (U251) of the same compound?
The GI50 was 468 nM.

And the GI50 (MCF7)?
The GI50 was 355 nM.

What about the GI50 (SF-539) of the same compound?
Its GI50 is 347 nM.

And the GI50 (UO-31)?
Its GI50 is 513 nM.

And the GI50 (OVCAR-8)?
The GI50 was 479 nM.

What about the GI50 (HT29) of the same compound?
Its GI50 is 363 nM.

And the GI50 (CCRF-CEM)?
The GI50 was 380 nM.

And the GI50 (SK-OV-3)?
Its GI50 is 562 nM.

What about the GI50 (786-0) of the same compound?
The GI50 was 490 nM.

And the GI50 (PC-3)?
The GI50 was 282 nM.

What about the GI50 (MALME-3M) of the same compound?
The GI50 was 316 nM.

What about the GI50 (HL-60(TB)) of the same compound?
Its GI50 is 407 nM.

What about the GI50 (DU-145) of the same compound?
Its GI50 is 457 nM.

What about the GI50 (HS 578T) of the same compound?
Its GI50 is 437 nM.

And the GI50 (SNB-75)?
The GI50 was 245 nM.

And the GI50 (SK-MEL-2)?
The GI50 was 589 nM.

And the PAK activity [1]?
The PAK activity was “does not directly inhibit PAK activity”.

And the “growth inhibitory activity against the NCI-60 panel” value (NCI-60 panel)?
The value was “inhibits the growth of several human cancer cell lines; also recorded: broad growth inhibitory activity”.

And the PDGFRβ autophosphorylation (PDGFRβ)?
Its PDGFRβ autophosphorylation is “directly impacts PDGFRβ autophosphorylation”.

And the cell viability ([2]; A549)?
Its cell viability is “decrease cell viability”.

What about the EC50 ([2]; A549 lung cancer cells) of the same compound?
The EC50 was “approach picomolar (pM) EC50s”.
